Source: patent publication US7700634B2, “(Indol-3-yl) heterocycle derivatives as agonists of the cannabinoid CB1 receptor” (N.V. Organon, priority 2004, dated 2010)
Where a name gives a salt, the structure may show the parent alone.

Experiments:
Mice = assay: Tail flick latency in mice; format: in vivo; conditions: Mus musculus, iv, administered intravenously, ED50 calculated at Tmax, significantly increased the tail flick latency, read-out: ED50 (increase of tail flick latency)
Experimental: Tail Flick Latency in Mice
Mice were trained to sit still in a tail flick apparatus (Ugo Basile, Italy) whilst tail flick latency was measured. The tail was exposed to a focused beam of radiant heat at a point approximately 2.5 cm from the tip. Tail flick latency was defined as the interval between the appliance of the thermal stimulus and withdrawal of the tail. A 12 second cut-off was employed to prevent tissue damage. Four groups of eight mice were treated with vehicle or one of three doses of the test compound, administered intravenously (vehicle: 10% Tween-80 in saline; injection volume 10 ml/kg). Tail flick latency was measured before administration of the test compound and at regular intervals (typically 20, 40 and 60 minutes) after compound administration. The ED50 was calculated at Tmax.

human CB1 receptor = biological target: T1, human CB1 receptor (Homo sapiens, UniProt P21554); assay: In-vitro efficacy and potency at the human CB1 receptor expressed in CHO cells (luciferase reporter gene assay); format: cell-based; conditions: CHO cells expressing human CB1 receptor and luciferase reporter gene; 5 h incubation at 37° C.
T1 construct: expressed in transfected cells; host or cells: Chinese Hamster Ovary (CHO) cells
Experimental: In-vitro Determination of Efficacy and Potency at the Human CB1 Receptor Expressed in CHO Cells
Chinese Hamster Ovary (CHO) cells expressing the human CB1 receptor and a luciferase reporter gene were suspended in phenol red/serum free DMEM/F-12 nut mix containing penicillin/streptomycin (50 U/50 μg/ml) and fungizone (1 μg/ml) and seeded into 96 well plates at a density of 3×10^4 cells per well (100 μl final volume). Cells were incubated overnight (approx. 18 h at 37° C., 5% CO2/95% air) prior to assay. […] The stock solutions (10 μl) were added directly to the relevant wells. The plates were incubated at 37° C. for 5 h to allow agonist-induced expression of the luciferase enzyme. Under subdued light, LucLite substrate (Packard; reconstituted as per manufacturer's instructions; 100 μl) was added to each well. Plates were covered with Top Seal and then incubated at room temperature for 5 minutes before counting on the Packard TopCount (single photon counting, 0.01 minute count time, 5 minute count delay).

T1 sequence (P21554 whole entry): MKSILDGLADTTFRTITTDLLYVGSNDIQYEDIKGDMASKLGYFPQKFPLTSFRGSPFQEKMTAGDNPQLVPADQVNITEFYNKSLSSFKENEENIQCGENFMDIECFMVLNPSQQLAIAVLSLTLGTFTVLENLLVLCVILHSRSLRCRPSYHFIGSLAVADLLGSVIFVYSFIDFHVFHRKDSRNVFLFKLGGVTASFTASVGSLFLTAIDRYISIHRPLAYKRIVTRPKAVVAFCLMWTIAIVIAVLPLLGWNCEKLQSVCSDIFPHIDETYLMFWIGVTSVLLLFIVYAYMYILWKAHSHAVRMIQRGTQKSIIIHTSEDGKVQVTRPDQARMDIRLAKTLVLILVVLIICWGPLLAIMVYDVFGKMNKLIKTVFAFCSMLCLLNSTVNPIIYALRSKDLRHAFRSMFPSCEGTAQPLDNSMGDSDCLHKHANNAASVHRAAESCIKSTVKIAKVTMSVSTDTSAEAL

Structure (SMILES) | ED50 (Mice) [µmol/kg] | EC50 (human CB1 receptor) [nM]
COc1cccc2c(-c3noc([C@H]4CCCN4C)n3)cn(CC3CCCCC3)c12 [Example 2G, (R)-1-(Cyclohexyl)methyl-7-methoxy-3-[5-(1-methylpyrrolidin-2-yl)-[1,2,4]oxadiazol-3-yl]-1H-indole, hydrochloride salt] | < 5 | 31.6
CCN(CC)Cc1nc(-c2cn3c4c(cccc24)OC[C@H]3C2CCCCC2)ns1 [Example 13, (R)-3-Cyclohexyl-6-{5-[(diethylamino)methyl]-[1,2,4]-thiadiazol-3-yl}-2,3-dihydropyrrolo[1,2,3-de]-1,4-benzoxazine, hydrochloride salt] | < 5 | 7.94
Fc1cccc2c(-c3nsc(CN4CCCC4)n3)cn(CC3CCOCC3)c12 [Example 14B, 7-fluoro-3-{5-[(pyrrolidin-1-yl)methyl]-[1,2,4]-thiadiazol-3-yl}1-(tetrahydropyran-4-yl)methyl-1H-indole, hydrochloride salt] | < 5 | 50.1
CCN(CCOC)Cc1nc(-c2cn(CC3CCOCC3)c3c(Cl)cccc23)ns1 [Example 15A, 7-chloro-3-(5-{[N-ethyl-N-(2-methoxyethyl)amino]methyl}-[1,2,4]-thiadiazol-3-yl)-1-(tetrahydropyran-4-yl)methyl-1H-indole, hydrochloride salt] | < 5 | 10
Clc1cccc2c(-c3nsc(CN4CCCC4)n3)cn(CC3CCOCC3)c12 [Example 15B, 7-chloro-3-{5-[(Pyrrolidin-1-yl)methyl]-[1,2,4]-thiadiazol-3-yl}1-(tetrahydropyran-4-yl)methyl-1H-indole, hydrochloride salt] | < 5 | 20
CCN(CCO)Cc1nc(-c2cn(CC3CCOCC3)c3c(Cl)cccc23)ns1 [Example 15C, 7-chloro-3-(5-{[N-ethyl-N-(2-hydroxyethyl)amino]methyl}-[1,2,4]-thiadiazol-3-yl)-1-(tetrahydropyran-4-yl)methyl-1H-indole] | < 5 | 10
COCCN(Cc1csc(-c2cn(CC3CCCCC3)c3c(Cl)cccc23)n1)C(C)C [Example 20, 7-Chloro-1-(cyclohexyl)methyl-3-(4-{[N-isopropyl-N-(2-methoxyethyl)amino]methyl}-[1,3]-thiazol-2-yl)-1H-indole, hydrochloride salt] | < 5 | 5.01
CC(C)N(CCO)Cc1csc(-c2cn(CC3CCOCC3)c3c(Cl)cccc23)n1 [Example 23B, 7-Chloro-3-(4-{[N-(2-hydroxyethyl)-N-isopropylamino]methyl}-1,3-thiazol-2-yl)-1-(tetrahydropyran-4-yl)methyl-1H-indole] | < 5 | –
CCN(CCO)Cc1csc(-c2cn(CC3CCOCC3)c3c(Cl)cccc23)n1 [Example 23C, 7-Chloro-3-(4-{[N-ethyl-N-(2-hydroxyethyl)amino]methyl}-[1,3]-thiazol-2-yl)-1-(tetrahydropyran-4-yl)methyl-1H-indole] | < 5 | –
CCN(CC)Cc1ncc(-c2cn(CC3CCCCC3)c3c(OC)cccc23)o1 [Example 32, 1-(Cyclohexyl)methyl-3-{2-[(diethylamino)methyl]-[1,3]-oxazol-5-yl}-7-methoxy-1H-indole, hydrochloride salt] | – | 50.1
CCN1Cc2snc(-c3cn(CC4CCCCC4)c4c(OC)cccc34)c2C1 [Example 33, 1-(Cyclohexyl)methyl-3-(5-ethyl-5,6-dihydro-4H-pyrrolo[3,4-d]isothiazol-3-yl)-7-methoxy-1H-indole, hydrochloride salt] | – | 79.4
COc1cccc2c(-c3nnc(CN4CCCC4)s3)cn(CC3CCCCC3)c12 [Example 38, 1-(Cyclohexyl)methyl-7-methoxy-3-{5-[(pyrrolidin-1-yl)methyl]-[1,3,4]-thiadiazol-2-yl}-1H-indole, hydrochloride salt] | – | 79.4
CC1(C)CCCN1Cc1nc(-c2cn(CC3CCOCC3)c3c(Cl)cccc23)no1 [Example 39, 7-Chloro-3-{5-[(2,2-dimethyl-pyrolidin-1-yl)methyl]-[1,2,4]oxadiazol-3-yl}-1-(tetrahydropyran-4-yl)methyl-1H-indole, hydrochloride salt] | < 5 | 31.6
